For seven compounds, GI50 and TGI results are on record in PubChem BioAssay (NCI).

Where “and” joins values, the source holds several entries; their conditions need not be identical. Identical values can stand only once.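 Cultured in 96-well plates, cells were exposed to test compound for 48 hours across five concentrations. GI50 marks 50% less growth. TGI: concentration producing complete growth inhibition.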

Among the test systems are 786-0 renal; CAKI-1 renal; HCT-116 colon; HOP-62 NSCLC; MDA-MB-231 breast; MOLT-4 leukemia; NCI-H522 lung; OVCAR-4 ovarian; RXF 393 renal; SK-MEL-28 melanoma.
What all share (experiment): DTP human tumour cell line panel, 48 h

For the compound `COc1ccc(NC(=O)n2nc(/C=C\c3ccc(O)c(OC)c3)cc2/C=C\c2ccc(O)c(OC)c2)cc1`, the GI50 in the experiment on 786-0 renal was 4 µM; in the experiment on CAKI-1 renal, 3.6 µM; with HCT-116 colon, 3.22 µM; in the experiment on HOP-62 NSCLC, 3.65 µM; in the experiment on MDA-MB-231 breast it was 4.94 µM; in the experiment with MOLT-4 leukemia, 2.87 µM. The GI50 in the experiment with NCI-H522 lung is 1.76 µM; in the experiment on OVCAR-4 ovarian it was 5.72 µM; in the experiment on RXF 393 renal, 3.02 µM; with SK-MEL-28 melanoma, 3.52 µM. The TGI was 24.3 µM with 786-0 renal; above 100 µM in the experiment on CAKI-1 renal; 42.9 µM with HCT-116 colon; 42.8 µM in the experiment with HOP-62 NSCLC; 83.5 µM in the experiment on MDA-MB-231 breast; 13.3 µM with MOLT-4 leukemia. In addition, the TGI in the experiment with NCI-H522 lung is 12.7 µM; with OVCAR-4 ovarian, 90.7 µM; in the experiment with RXF 393 renal, 8.87 µM; in the experiment with SK-MEL-28 melanoma, 92.7 µM.
In the case of `COc1cc2ncnc3c2cc1OCCCCCN(C)Cc1ccc(Br)cc1N3`, the GI50 is 37.4 µM and 5.07 µM in the experiment on 786-0 renal; 0.288 µM and 0.375 µM in the experiment with CAKI-1 renal; 13.9 µM and 1.48 µM in the experiment with HCT-116 colon; 21.7 µM and 8.36 µM with HOP-62 NSCLC; 10.6 µM and 7.51 µM in the experiment on MDA-MB-231 breast; 6.85 µM and 3.88 µM in the experiment on MOLT-4 leukemia. The GI50 is 0.851 µM and 0.225 µM in the experiment with NCI-H522 lung; 2.57 µM and 1.34 µM with OVCAR-4 ovarian; 4.03 µM and 1.84 µM with RXF 393 renal; 6.68 µM and 7.54 µM with SK-MEL-28 melanoma. In addition, the TGI in the experiment with 786-0 renal is above 100 µM; in the experiment with CAKI-1 renal, above 100 µM; with HCT-116 colon, above 100 µM; in the experiment on HOP-62 NSCLC it was above 100 µM; in the experiment with MDA-MB-231 breast, 50.9 µM and > 10 µM; with MOLT-4 leukemia, above 100 µM. Further, the TGI was 43.1 µM and > 10 µM with OVCAR-4 ovarian; above 100 µM with RXF 393 renal; above 100 µM in the experiment on SK-MEL-28 melanoma.
With `CC12CC=CCC1CCC1C2CCC2(C)C(c3ccc(=O)oc3)CCC12O` (centres undefined), the GI50 with 786-0 renal was 0.0387 µM; in the experiment on CAKI-1 renal, 0.135 µM; in the experiment on HCT-116 colon, 0.0349 µM; in the experiment with HOP-62 NSCLC, 0.0459 µM; in the experiment on MDA-MB-231 breast, 0.336 µM; with MOLT-4 leukemia, 0.0292 µM. The GI50 with NCI-H522 lung was 0.0383 µM; in the experiment with OVCAR-4 ovarian, 0.197 µM; in the experiment on RXF 393 renal, 0.0174 µM; in the experiment on SK-MEL-28 melanoma it was 0.3 µM. Besides, the TGI is 0.209 µM in the experiment on 786-0 renal; 0.448 µM with CAKI-1 renal; 0.143 µM in the experiment on HCT-116 colon; 0.201 µM in the experiment on HOP-62 NSCLC; 1.64 µM with MDA-MB-231 breast; 0.113 µM in the experiment on MOLT-4 leukemia. The TGI with NCI-H522 lung stood at 0.273 µM; with OVCAR-4 ovarian it was 0.641 µM; in the experiment on RXF 393 renal, 0.0501 µM; with SK-MEL-28 melanoma it was 1.37 µM.
As for `CNCCNc1nc2ccccc2c2c(=O)c3cc(F)ccc3sc12`, the GI50 in the experiment with 786-0 renal was 1.59 µM; with CAKI-1 renal it was 1.38 µM; in the experiment on HCT-116 colon, 1.49 µM; with HOP-62 NSCLC, 1.48 µM; in the experiment with MDA-MB-231 breast, 1.61 µM; with MOLT-4 leukemia, 1.72 µM. For the same compound, the GI50 in the experiment with NCI-H522 lung was 1.66 µM; with OVCAR-4 ovarian, 1.8 µM; in the experiment with RXF 393 renal, 1.6 µM; in the experiment with SK-MEL-28 melanoma it was 1.85 µM. Also, the TGI in the experiment with 786-0 renal came out at 3.09 µM; in the experiment with CAKI-1 renal, 2.77 µM; in the experiment on HCT-116 colon it was 2.81 µM; in the experiment with HOP-62 NSCLC, 3.21 µM; in the experiment on MDA-MB-231 breast, 3.18 µM; in the experiment with MOLT-4 leukemia, 3.5 µM. Further, the TGI in the experiment on NCI-H522 lung turned out to be 3.42 µM; with OVCAR-4 ovarian, 3.66 µM; in the experiment on RXF 393 renal, 3.1 µM; with SK-MEL-28 melanoma, 3.38 µM.
On to `COc1cc2c(c(OC)c1OC)-c1ccc(O)c(=O)cc1[C@@H](NC(C)=O)CC2`, for which the GI50 in the experiment on 786-0 renal was 12.3 µM; in the experiment with CAKI-1 renal, 4.91 µM; in the experiment with HCT-116 colon it was 4.23 µM; with HOP-62 NSCLC, 10.7 µM; in the experiment on MDA-MB-231 breast, 4.7 µM; with MOLT-4 leukemia, 4.66 µM. The GI50 in the experiment on NCI-H522 lung is 4.64 µM; in the experiment on OVCAR-4 ovarian, 3.64 µM; in the experiment on RXF 393 renal it was 14.6 µM; in the experiment on SK-MEL-28 melanoma it was 7.48 µM. For the same compound, the TGI is 62 µM and 92.1 µM with 786-0 renal; > 100 µM and 37.5 µM with CAKI-1 renal; above 100 µM with HCT-116 colon; > 100 µM and 65.9 µM in the experiment on HOP-62 NSCLC; > 100 µM and 41.7 µM with MDA-MB-231 breast; 45.8 µM and 34.2 µM in the experiment on MOLT-4 leukemia. Besides, the TGI was 90.8 µM and 36.4 µM in the experiment on NCI-H522 lung; > 100 µM and 66.1 µM in the experiment on OVCAR-4 ovarian; above 100 µM in the experiment with RXF 393 renal; above 100 µM in the experiment with SK-MEL-28 melanoma.
With `COc1ccc(/C=C\c2cc(OC)c(OC)c(OC)c2)c(NS(=O)(=O)c2ccc(Cl)cc2)c1O`, the GI50 was 0.572 µM with 786-0 renal; 0.0542 µM with CAKI-1 renal; 0.114 µM in the experiment with HCT-116 colon; 0.671 µM in the experiment on HOP-62 NSCLC; 0.206 µM with MDA-MB-231 breast; 0.315 µM with MOLT-4 leukemia. Further, the GI50 in the experiment on NCI-H522 lung was 0.0848 µM; in the experiment on OVCAR-4 ovarian, 0.0973 µM; in the experiment with RXF 393 renal, 0.0355 µM; in the experiment with SK-MEL-28 melanoma it was 0.084 µM. The TGI was 24.8 µM with 786-0 renal; 28.7 µM in the experiment with CAKI-1 renal; above 100 µM with HCT-116 colon; 46.1 µM in the experiment with HOP-62 NSCLC; 21.4 µM in the experiment with MDA-MB-231 breast; 83.3 µM with MOLT-4 leukemia. The TGI was 0.607 µM with NCI-H522 lung, above 100 µM in the experiment on OVCAR-4 ovarian, 10.7 µM in the experiment with RXF 393 renal and 31.6 µM with SK-MEL-28 melanoma.
Regarding `COC(=O)[C@H]1[C@H]2C[C@@H]3c4[nH]c5cc(OC)ccc5c4CCN3C[C@H]2C[C@@H](OC(=O)/C=C/c2cc(OC)c(OC)c(OC)c2)[C@@H]1OC`, the GI50 was 9.86 µM with 786-0 renal; 3.97 µM in the experiment with CAKI-1 renal; 3.18 µM in the experiment with HCT-116 colon; 5.99 µM with HOP-62 NSCLC; 10.6 µM in the experiment with MDA-MB-231 breast; 3.33 µM in the experiment on MOLT-4 leukemia. Also, the GI50 with NCI-H522 lung was 10.4 µM; in the experiment with OVCAR-4 ovarian, 3.39 µM; in the experiment on RXF 393 renal it was 11 µM; with SK-MEL-28 melanoma, 12.6 µM. The TGI in the experiment with 786-0 renal is 26.3 µM; in the experiment on CAKI-1 renal it was 26.8 µM; with HCT-116 colon it was 9.57 µM; in the experiment on HOP-62 NSCLC, 25.5 µM; in the experiment with MDA-MB-231 breast, 41.8 µM; in the experiment on MOLT-4 leukemia, above 100 µM. In addition, the TGI in the experiment on NCI-H522 lung was determined as 27 µM; in the experiment with OVCAR-4 ovarian it was 11.2 µM; in the experiment with RXF 393 renal, 31.5 µM; in the experiment with SK-MEL-28 melanoma, 28 µM.

Usually GI50 stands for the concentration that inhibits growth by half. As a reminder, the TGI is the concentration giving total growth inhibition. Higher therefore signals lower sensitivity of the cells.
